Common to all, as to assay type: cell-based
In test [1] the test system is human platelets. As to the kind of experiment: aggIgG-induced platelet activation, surface CD62P by flow cytometry. Conditions: aggIgG 50 or 500 μg/ml; several concentrations of AHL.
Test [2] relates to human platelets. As to the kind of experiment: Thrombin-induced platelet activation, surface CD62P by flow cytometry. Conditions: 0.1 U/ml thrombin; for maximal inhibitory concentration (MIC) for thrombin: AHL pre-incubation 15 minutes at 37° C., CD62P; for inhibition of platelet activation by thrombin: several concentrations of AHL. (In general: Flow cytometry measures light scatter and fluorescence of single cells or particles in a stream.)

Test [3] deals with human platelets. Briefly: Platelet tyrosine phosphorylation (whole cell lysates, SDS-PAGE, anti-phosphotyrosine blot). As to conditions: 20 μM 12C-AHL. The protocol:
FIGS. 3A-3C: Effect of AHLs on tyrosine phosphorylation. Human platelets were incubated with PBS or 12C-AHL then left unstimulated or stimulated with […] aggIgG or 0.1 Um′ thrombin. Whole cell lysates were prepared as described in the examples and blotted for anti-phosphotyrosine or anti-GAPDH as loading control. (FIG. 3A.) To determine band intensities, total band intensity in the phosphorylation gel was divided by the GAPDH signal and plotted as total band intensity. (FIG. 3B.) Intensity of the indicated band was compared to GAPDH and plotted as band intensity. (FIG. 3C.)
Results from the above experiments indicate that AHLs are altering platelet signaling downstream of FcγRIIa (the receptor for aggIgG) and thrombin receptors (PAR1/4) to a lesser extent. To test this, human platelets were incubated with PBS or 20 μM 12C-AHL for 15 min at 37° C. followed by stimulation with thrombin or aggIgG. Whole cell lysates were separated by SDS-PAGE and blotted for phosphotyrosine.

Test [4] has as its system human platelets. Briefly: Platelet phagocytosis of IgG-coated beads through FcγRIIa (flow cytometry). As to conditions: FITC-IgG-coated 1.5 μm beads, 30 minutes. Here is the method: FIGS. 4A-4C: Effect of AHLs on platelet-mediated phagocytosis. Human platelets were incubated as indicated in the examples and analyzed by flow cytometry for FITC-IgG and PE-anti-IgG. (FIG. 4A.) Platelets were incubated with PBS, 10C- or 12C-AHLs or cytochalasin D (positive control to block phagocytosis), then exposed to FITC-IgG-coated […] beads for 30 minutes, labeled with anti-IgG conjugated to PE and analyzed by flow cytometry for FITC-IgG and PE-anti-IgG. (FIG. 4B.) Platelets were treated as in FIG. 4B and surface CD62P expression was measured by flow cytometry. * p<0.01, ** p<0.005. (FIG. 4C.)
Polystyrene beads, 1.5 μm in diameter, (Polysciences, Warrington, Pa.) were opsonized for 2 hours at 21° C. in a 10 mg/ml solution FITC labeled human IgG (SigmaAldrich, St. Louis, Mo.) or unlabeled human IgG for controls. After washing three times in PBS, beads were then resuspended in buffer and counted via hemacytometer. […]
Samples were prepared for flow cytometry and platelets with associated beads were gated on CD42b+/FITC+ and analyzed for internal/external by the absence/presence of PE expression on a FACSCalibur (B-D Biosciences). […] Data were analyzed using Cell Quest (B-D Biosciences) and FlowJo (Tree Star, Inc., Ashland, Oreg.) software.
Because AHLs inhibit signaling (especially aggIgG-induced tyrosine phosphorylation), whether other platelet activities are inhibited was evaluated. […]

For `CCCCCCCC(=O)CC(=O)N[C@H]1CCOC1=O` [10C-AHL, N-(3-oxodecanoyl)-L-homoserine lactone], the “inhibition of platelet activation by aggIgG” value in test [1] was “inhibit platelet activation”. Moreover, in test [2], the “maximal inhibitory concentration (MIC) for thrombin” value stood at 200 µM and the “inhibition of platelet activation by thrombin” value is on record as “inhibit platelet activation”.
Take `CCCCCCCCCC(=O)CC(=O)N[C@@H]1CCOC1=O` [12C-AHL, N-oxo-dodecanoyl-L-homoserine lactone]: the “inhibition of platelet activation by aggIgG” value in test [1] is on record as “inhibit platelet activation”. In addition, in test [2], the “maximal inhibitory concentration (MIC) for thrombin” value stood at 200 µM and the “inhibition of platelet activation by thrombin” value is reported as “inhibit platelet activation”. Further, the “effect on tyrosine phosphorylation in unstimulated platelets” value in test [3] (15 min at 37° C., unstimulated) was “marginal effect”. Also, the “effect on tyrosine phosphorylation in platelets stimulated with thrombin” value in test [3] (0.1 U/ml thrombin) is “marginal effect”. The “effect on phosphorylation induced by aggIgG” value in test [3] (aggIgG stimulation) is “nearly completely abolished”.
Take `C=C1[C@@H](C)[C@H]2[C@H](Cc3ccccc3)NC(=O)[C@]23[C@H](OC(C)=O)/C=C/[C@@](C)(O)C(=O)[C@@H](C)C/C=C/[C@H]3[C@@H]1O` [cytochalasin D]: in test [4], the “inhibition of the phagocytic activity of platelets” value is on record as greater than 90%.

Source of the values: patent publication US10702497B2, “Use of acyl-homoserine lactone derivatives as anti-thrombotic agents” (The University of Toledo, priority 2015, dated 2020).
